Earlier results as cited in EP0349514A1, “Prolonged-release pharmaceutical composition containing erythromycine, its preparation and its use” (priority 1988, dated 1990).

Conditions: plasma

CC[C@H]1OC(=O)[C@H](C)[C@@H](O[C@H]2C[C@@](C)(OC)[C@@H](O)[C@H](C)O2)[C@H](C)[C@@H](O[C@@H]2O[C@H](C)C[C@H](N(C)C)[C@H]2O)[C@](C)(O)C[C@@H](C)C(=O)[C@H](C)[C@@H](O)[C@]1(C)O [érythromycine]
temps de demi-vie plasmatique t 1/2: 1,6 h
